Reference: patent US20100292279A1, “Bis-(Sulfonylamino) Derivatives in Therapy” (ASTRAZENECA AB, priority 2009, published 2010)

What follows are compounds tested against T1, human mPGES-1 (Homo sapiens, UniProt O14684) (assay: Microsomal prostaglandin E synthase biochemical assay). Conditions: microsome preparation containing human mPGES-1; substrate PGH2 10.8 μM, GSH 2.5 mM, pH 6.8; PGE2 by HTRF; average of at least n=2.
T1 construct: host or cells: microsomes
T1 sequence (O14684 1-152): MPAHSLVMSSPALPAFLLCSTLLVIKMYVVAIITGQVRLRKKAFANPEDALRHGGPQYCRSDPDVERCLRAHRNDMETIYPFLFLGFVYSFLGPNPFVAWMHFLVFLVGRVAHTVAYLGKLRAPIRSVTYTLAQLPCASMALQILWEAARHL
Experimental: Compounds were tested as inhibitors of microsomal prostaglandin E synthase activity in microsomal prostaglandin E synthase assays and whole cell assays. These assays measure prostaglandin E2 (PGE2) synthesis which is taken as a measure of prostaglandin E synthase activity. Microsomal prostaglandin E synthase biochemical assays used microsomal prostaglandin E synthase-1 in microsomal preparations. The source of the microsomes can be for example interleukin-1β-stimulated human A549 cells (which express human mPGES-1) or Sf9 cells transfected with plasmids encoding human mPGES-1 cDNA.
A solution of test compound was added to a diluted microsome preparation containing is human mPGES-1 and pre-incubated for 15 minutes in potassium phosphate buffer pH 6.8 with cofactor glutathione (GSH). Corresponding solutions without test compound were used as positive controls, and corresponding solutions without test compound and without microsomes were used as negative controls. The enzymatic reaction was then started by addition of the substrate PGH2 in an organic solution (dry acetonitrile).
The reaction was stopped after one minute by adding an acidic solution (pH 1.9) of ferric chloride and citrate (final concentrations 7 mM and 47 mM respectively), by which the PGH2 was sequestered (the PGH2 is reduced to mainly 12-hydroxy heptadecatrineoic acid (12-HHT) which is not detected by the subsequent PGE2 detection step). The resulting solution was then pH neutralized by addition of potassium phosphate buffer, prior to diluting an aliquot of the resulting solution in a weak potassium phosphate buffer (50 mM, pH 6.8) containing 0.2% BSA (w/v). […] The PGE2 formed was quantified by use of a commercial HTRF based kit (catalogue #62PG2PEC or #62P2APEC from Cisbio International). 100% activity was defined as the PGE2 production in positive controls subtracted by the PGE2 production in the negative controls. IC50 values were then determined using standard procedures.
In the case of `CC(C)Oc1cc(C(=O)NS(=O)(=O)c2ccccc2S(N)(=O)=O)ccc1C#Cc1ccc(C(F)(F)F)cc1` [Example 33, 3-Isopropoxy-N-(2-sulfamoylphenylsulfonyl)-4-((4-(trifluoromethyl)phenyl)ethynyl)benzamide], the IC50 is reported as 54 nM.
Work on `NS(=O)(=O)c1ccccc1S(=O)(=O)NC(=O)c1ccc(-c2cc3ccccc3o2)c(OCC(F)F)c1` [Example 7, 4-(Benzofuran-2-yl)-3-(2,2-difluoroethoxy)-N-(2-sulfamoylphenylsulfonyl)benzamide] yielded an IC50 of 4.5 nM.
For `Cc1cc(C(=O)NS(=O)(=O)c2ccccc2S(N)(=O)=O)ccc1C#CC(C)C` [Example 50, 3-Methyl-4-(3-methylbut-1-ynyl)-N-(2-sulfamoylphenylsulfonyl)benzamide], the IC50 was 17 nM.
With `NS(=O)(=O)c1ccccc1S(=O)(=O)NC(=O)c1ccc(-c2cc3ccccc3o2)c(OCC2CC2)c1` [Example 21, 4-(Benzofuran-2-yl)-3-(cyclopropylmethoxy)-N-(2-sulfamoylphenylsulfonyl)benzamide] the IC50 was 5 nM.
`CC(C)C#Cc1ccc(C(=O)NS(=O)(=O)c2ccccc2S(N)(=O)=O)cc1OCC(F)(F)F` [Example 53, 4-(3-Methylbut-1-ynyl)-N-(2-sulfamoylphenylsulfonyl)-3-(2,2,2-trifluoroethoxy)benzamide] showed an IC50 of 25 nM.
For `Cc1ccc(C#Cc2ccc(C(=O)NS(=O)(=O)c3ccccc3S(N)(=O)=O)cc2OCCC(F)F)cc1` [Example 70, 3-(3,3-Difluoropropoxy)-N-(2-sulfamoylphenylsulfonyl)-4-(p-tolylethynyl)benzamide], the IC50 was 7.8 nM.
For `COc1cc(C(=O)NS(=O)(=O)c2ccccc2S(N)(=O)=O)ccc1COc1ccc(C)cc1` [Example 2, 3-Methoxy-N-(2-sulfamoylphenylsulfonyl)-4-(p-tolyloxymethyl)benzamide], the IC50 was 31 nM.
`COc1cc(C(=O)NS(=O)(=O)c2ccccc2S(N)(=O)=O)ccc1C#Cc1ccc(C)cc1` [Example 17, 3-Methoxy-N-(2-sulfamoylphenylsulfonyl)-4-(p-tolylethynyl)benzamide] was tested, and the IC50 was 6.3 nM.
For `COc1cc(C(=O)NS(=O)(=O)c2ccccc2S(N)(=O)=O)ccc1C#Cc1cccc(C)c1` [Example 18, 3-Methoxy-N-(2-sulfamoylphenylsulfonyl)-4-(m-tolylethynyl)benzamide], the IC50 was 12 nM.
With `Cc1ccccc1C#Cc1ccc(C(=O)NS(=O)(=O)c2ccccc2S(N)(=O)=O)cc1` [Example 8, N-(2-Sulfamoylphenylsulfonyl)-4-(o-tolylethynyl)benzamide] the IC50 was 6.4 nM.
Compound `CC(C)C#Cc1ccc(C(=O)NS(=O)(=O)c2ccccc2S(N)(=O)=O)cc1COCC(F)(F)F` [Example 56, 4-(3-Methylbut-1-ynyl)-N-(2-sulfamoylphenylsulfonyl)-3-((2,2,2-trifluoroethoxy)methyl)benzamide] has an IC50 of 100 nM.
In the case of `NS(=O)(=O)c1ccccc1S(=O)(=O)NC(=O)c1ccc(C#Cc2cccc(Cl)c2)cc1` [Example 12, 4-((3-Chlorophenyl)ethynyl)-N-(2-sulfamoylphenylsulfonyl)benzamide], the IC50 is reported as 4.4 nM.
With `CC(C)C#Cc1ccc(C(=O)NS(=O)(=O)c2ccccc2S(N)(=O)=O)cc1OCCCC(F)(F)F` [Example 64, 4-(3-Methylbut-1-ynyl)-N-(2-sulfamoylphenylsulfonyl)-3-(4,4,4-trifluorobutoxy)benzamide] the IC50 was 15 nM.
`COc1cc(C(=O)NS(=O)(=O)c2ccccc2S(N)(=O)=O)ccc1C#Cc1ccc(Cl)cc1` [Example 15, 4-((4-Chlorophenyl)ethynyl)-3-methoxy-N-(2-sulfamoylphenylsulfonyl)benzamide] showed an IC50 of 8.4 nM.
`CC(C)(C)C#Cc1ccc(C(=O)NS(=O)(=O)c2ccccc2S(N)(=O)=O)cc1OCCOCC(F)(F)F` [Example 61, 4-(3,3-Dimethylbut-1-ynyl)-N-(2-sulfamoylphenylsulfonyl)-3-(2-(2,2,2-trifluoroethoxy)ethoxy)benzamide] showed an IC50 of 27 nM.
`NS(=O)(=O)c1ccccc1S(=O)(=O)NC(=O)c1ccc(C#Cc2ccc(C(F)(F)F)cc2)cc1` [Example 41, N-(2-Sulfamoylphenylsulfonyl)-4-((4-(trifluoromethyl)phenyl)ethynyl)benzamide] showed an IC50 of 5.7 nM.
Work on `NS(=O)(=O)c1ccccc1S(=O)(=O)NC(=O)c1ccc(-c2cc3ccccc3o2)c(OCCC(F)(F)F)c1` [Example 59, 4-(Benzofuran-2-yl)-N-(2-sulfamoylphenylsulfonyl)-3-(3,3,3-trifluoropropoxy)benzamide] yielded an IC50 of 8.5 nM.
In the case of `NS(=O)(=O)c1ccccc1S(=O)(=O)NC(=O)c1ccc(C#Cc2ccccc2)c(OCCOCC(F)(F)F)c1` [Example 63, 4-(Phenylethynyl)-N-(2-sulfamoylphenylsulfonyl)-3-(2-(2,2,2-trifluoroethoxy)ethoxy)benzamide], the IC50 is reported as 9.3 nM.
For `CC(C)C#Cc1ccc(C(=O)NS(=O)(=O)c2ccccc2S(N)(=O)=O)cc1OCC(F)(F)C(F)F` [Example 58, 4-(3-Methylbut-1-ynyl)-N-(2-sulfamoylphenylsulfonyl)-3-(2,2,3,3-tetrafluoropropoxy)benzamide], the IC50 was 24 nM.
Compound `NS(=O)(=O)c1ccccc1S(=O)(=O)NC(=O)c1ccc(C#Cc2ccc(F)cc2)cc1` [Example 11, 4-((4-Fluorophenyl)ethynyl)-N-(2-sulfamoylphenylsulfonyl)benzamide] has an IC50 of 10 nM.
`NS(=O)(=O)c1ccccc1S(=O)(=O)NC(=O)c1ccc(C#Cc2ccc(Cl)cc2)cc1` [Example 10, 4-((4-Chlorophenyl)ethynyl)-N-(2-sulfamoylphenylsulfonyl)benzamide] showed an IC50 of 3.7 nM.
For `NS(=O)(=O)c1cc(O)ccc1S(=O)(=O)NC(=O)c1ccc(-c2cc3ccccc3o2)cc1` [Example 75, 4-Hydroxy-benzene-1,2-disulfonic acid 2-amide 1-(4-benzofuran-2-yl-benzoylamide)], the IC50 was 26 nM.
In the case of `CC(C)C#Cc1ccc(C(=O)NS(=O)(=O)c2ccccc2S(N)(=O)=O)cc1OCC(C)C` [Example 28, 3-Isobutoxy-4-(3-methylbut-1-ynyl)-N-(2-sulfamoylphenylsulfonyl)benzamide], the IC50 is reported as 20 nM.
Work on `NS(=O)(=O)c1ccccc1S(=O)(=O)NC(=O)c1cnc(C#Cc2ccc(C(F)(F)F)cc2)c(OCCC(F)(F)F)c1` [Example 48] yielded an IC50 of 10 nM.
`COc1cc(C(=O)NS(=O)(=O)c2ccccc2S(N)(=O)=O)ccc1C#Cc1cccc(Cl)c1` [Example 19, 4-((3-Chlorophenyl)ethynyl)-3-methoxy-N-(2-sulfamoylphenylsulfonyl)benzamide] gave an IC50 of 7.3 nM.
`NS(=O)(=O)c1ccccc1S(=O)(=O)NC(=O)c1ccc(CN2CC(F)(F)C(F)(F)C2)cc1` [Example 24, N-(2-Sulfamoylphenylsulfonyl)-4-((3,3,4,4-tetrafluoropyrrolidin-1-yl)methyl)benzamide] showed an IC50 of 2900 nM.
For `CC(C)(C)C#Cc1ccc(C(=O)NS(=O)(=O)c2ccc(O)cc2S(N)(=O)=O)cc1` [Example 77, 4-Hydroxy-benzene-1,2-disulfonic acid 2-amide 1-[4-(3,3-dimethyl-but-1-ynyl)-benzoylamide]], the IC50 was 61 nM.
Work on `NS(=O)(=O)c1ccccc1S(=O)(=O)NC(=O)c1ccc(-c2cc3ccccc3o2)c(F)c1` [Example 57, 4-(Benzofuran-2-yl)-3-fluoro-N-(2-sulfamoylphenylsulfonyl)benzamide] yielded an IC50 of 8.5 nM.
In the case of `COc1cc(C(=O)NS(=O)(=O)c2ccccc2S(N)(=O)=O)ccc1C#Cc1cccc(F)c1` [Example 20, 4-((3-Fluorophenyl)ethynyl)-3-methoxy-N-(2-sulfamoylphenylsulfonyl)benzamide], the IC50 is reported as 12 nM.
`COc1cc(C(=O)NS(=O)(=O)c2ccccc2S(N)(=O)=O)ccc1C#Cc1ccc(C(F)(F)F)cc1` [Example 38, 3-Methoxy-N-(2-sulfamoylphenylsulfonyl)-4-((4-(trifluoromethyl)phenyl)ethynyl)benzamide] was tested, and the IC50 was 7.3 nM.
Compound `NS(=O)(=O)c1ccccc1S(=O)(=O)NC(=O)c1ccc(C#CC2CCCC2)c(OCCCC(F)(F)F)c1` [Example 69, 4-(Cyclopentylethynyl)-N-(2-sulfamoylphenylsulfonyl)-3-(4,4,4-trifluorobutoxy)benzamide] has an IC50 of 11 nM.
Work on `COc1cc(C(=O)NS(=O)(=O)c2ccccc2S(N)(=O)=O)ccc1C#Cc1ccccc1` [Example 73, 3-Methoxy-4-(phenylethynyl)-N-(2-sulfamoylphenylsulfonyl)benzamide] yielded an IC50 of 24 nM.
`CC(C)C#Cc1ccc(C(=O)NS(=O)(=O)c2ccccc2S(N)(=O)=O)cc1OCC1CC1` [Example 23, 3-(Cyclopropylmethoxy)-4-(3-methylbut-1-ynyl)-N-(2-sulfamoylphenylsulfonyl)benzamide] was tested, and the IC50 was 34 nM.
Work on `CC(C)C#Cc1ccc(C(=O)NS(=O)(=O)c2ccccc2S(N)(=O)=O)cc1COCCC(F)(F)F` [Example 55, 4-(3-Methylbut-1-ynyl)-N-(2-sulfamoylphenylsulfonyl)-3-((3,3,3-trifluoropropoxy)methyl)benzamide] yielded an IC50 of 80 nM.
